We go through five compounds from PMC10458458, “Characterization of Anticancer Effects of the Analogs of DJ4, a Novel Selective Inhibitor of ROCK and MRCK Kinases” (Pharmaceuticals, 2023).

Test [1] deals with MDA-MB-231 breast cancer cells. The test can be described thus: Cell migration (scratch/wound healing) assay. In kind it is cell-based, human. The settings on record: MDA-MB-231, 2.5 µM for 24 h, then 9 h migration in compound-free medium; vehicle = 100%. The procedure:
Lastly, we examined the effects of these four analogs on migration of MDA-MB-231 breast cancer cells. Scratch assays were performed on cells treated with the various analogs for 24 h and then allowed to migrate into the scratched area for 9 h in compound-free media. […] Due to limited solubility, DJ-Morpholine was not tested for its effect on cell migration.
Figure 9 DJ4 analogs inhibit migration of MDA-MB-231 breast cancer cells. (A) MDA-MB-231 cells were treated with 2.5 µM concentration of DJ4 analogs for 24 h. At the end of the treatment period, uniform scratches were made across the monolayer of cells. The cells were allowed to migrate in the scratched area for 9 h in a compound-free medium. The cells were stained with calcein (green) and propidium iodide (red) to study live and dead cell populations in the scratched area. (B) The distance migrated by the treated cells was normalized to vehicle control treated cells. Statistical significance was determined by one-way ANOVA followed by Dunnett’s multiple comparison test. The error bars indicate SEM from triplicates of the experiment. *** p < 0.001. TEXT PRINTED IN THE PICTURE: (B) DMSO: % Migration: 100 | (B) DJ4: % Migration: 32 *** | (B) DJ110: % Migration: 28 *** | (B) DJ Allyl: % Migration: 36 *** | (B) DJE4: % Migration: 48 ***
Migration (scratch/wound healing) assays were performed using published procedures. Briefly, MDA-MB-231 cells were grown to confluence, and cells were treated with DMSO (vehicle control), DJ4, and its active analogs at 2.5 µM concentration for 24 h. At the end of the treatment period, uniform scratches were made in the monolayer of cells. The cells were allowed to migrate for 9 h in a compound-free medium. Light microscopic images were obtained at 0 h and 9 h after creating scratches. The width of the scratches was measured by using AxioVision software (AxioVision Inc., Carl Zeiss, Jena, Germany). The percentage of migration in each treatment at 9 h was calculated in comparison to 0 h readings. Furthermore, the percent migration in treatment groups was normalized to vehicle control (considering 100% migration). The experiment was performed in triplicate. Viability of the cells at the migration area was studied to confirm that the anti-migration effect of the analogs at the tested concentration and duration is independent of cell death. At the end of the migration period, cells were stained with calcein (Invitrogen, Waltham, MA, USA) and propidium iodide (Invitrogen, Waltham, MA, USA) dyes, as per the manufacturer’s protocol, which stain the live and dead cells, respectively.

A further test concerns MDA-MB-231. The test can be described thus: MTT cell growth assay, 48 h. The following applies: for IC50: Homo sapiens, MDA-MB-231, 48 h, 2000 cells/well, ±SE, read-out: IC50 from MTT assays. In kind it is cell-based, human. Here is the method: However, as the concentration increased from 2.5 µM onwards, the effect was reversed. Similarly, DJ-Morpholine decreased the cell growth by ~30% at 0.6215 µM, while the effect remained saturated as the concentration increased. This trend was also observed in A549 lung cancer and A375M melanoma cells.
Figure 7 DJ4 analogs reduce cell growth in melanoma, breast, and lung cancer cells. MTT assay was performed to evaluate the effect of DJ4 analogs on cell growth after 48 h of treatment. IC50 values were calculated with nonlinear least squares regression curve fit by GraphPad prism. […] The error bars indicate SD from triplicates of the experiment.
The cytotoxic effect of DJ4 was studied in H1299, H226, A549, H522, H23, and H460 non-small cell lung cancer cells. The cells were seeded into 96-well plates with confluence ([…]). The cells were further treated with DMSO or DJ4 for 72 h. To study the effects of analogs, A549, A375M, and MDA-MB-231 cells were plated with low density (2000 cells/well) in a 96-well plate and grown overnight at 37 °C (with 5% CO2). Cells were treated with the analogs at the concentration of 0–10 µM for 48 h. At the end of the treatment period, cells were incubated with a tetrazolium dye MTT (3-(4,5-dimethylthiazol-2-yl)-2,5-diphenyltetrazolium bromide) reagent (Sigma) at 37 °C for 3 h to develop formazan crystals. The media was siphoned off and crystals were dissolved in DMSO and mixed gently on rocker for 5 min. Absorbance was read at 570 nm and 630 nm (background) wavelength. IC50 values were calculated from non-linear regression curve fit by using GraphPad Prism 5.0 software.

For a further test, the target named is ROCK2 (Homo sapiens, UniProt O75116). The test can be described thus: Cell-free biochemical kinase activity assay (pMYPT1 immunoblot). Also noted: purchased Invitrogen. The procedure: Cell-free biochemical kinase inhibitory activity of these compounds was evaluated at 1 µM concentration using the previously described ROCK1 kinase activity assay. Among the 27 analogs, we identified four analogs (DJ110, DJ-Allyl, DJE4, and DJ-Morpholine) with >50% inhibition of MYPT1 phosphorylation (Supplementary Figure S1). These four compounds were selected for further evaluation at 1 µM and 0.1 µM for their in vitro inhibitory activity against ROCK1, ROCK2, MRCKα, and MRCKβ kinases.
ROCK2, sequence (O75116 whole entry): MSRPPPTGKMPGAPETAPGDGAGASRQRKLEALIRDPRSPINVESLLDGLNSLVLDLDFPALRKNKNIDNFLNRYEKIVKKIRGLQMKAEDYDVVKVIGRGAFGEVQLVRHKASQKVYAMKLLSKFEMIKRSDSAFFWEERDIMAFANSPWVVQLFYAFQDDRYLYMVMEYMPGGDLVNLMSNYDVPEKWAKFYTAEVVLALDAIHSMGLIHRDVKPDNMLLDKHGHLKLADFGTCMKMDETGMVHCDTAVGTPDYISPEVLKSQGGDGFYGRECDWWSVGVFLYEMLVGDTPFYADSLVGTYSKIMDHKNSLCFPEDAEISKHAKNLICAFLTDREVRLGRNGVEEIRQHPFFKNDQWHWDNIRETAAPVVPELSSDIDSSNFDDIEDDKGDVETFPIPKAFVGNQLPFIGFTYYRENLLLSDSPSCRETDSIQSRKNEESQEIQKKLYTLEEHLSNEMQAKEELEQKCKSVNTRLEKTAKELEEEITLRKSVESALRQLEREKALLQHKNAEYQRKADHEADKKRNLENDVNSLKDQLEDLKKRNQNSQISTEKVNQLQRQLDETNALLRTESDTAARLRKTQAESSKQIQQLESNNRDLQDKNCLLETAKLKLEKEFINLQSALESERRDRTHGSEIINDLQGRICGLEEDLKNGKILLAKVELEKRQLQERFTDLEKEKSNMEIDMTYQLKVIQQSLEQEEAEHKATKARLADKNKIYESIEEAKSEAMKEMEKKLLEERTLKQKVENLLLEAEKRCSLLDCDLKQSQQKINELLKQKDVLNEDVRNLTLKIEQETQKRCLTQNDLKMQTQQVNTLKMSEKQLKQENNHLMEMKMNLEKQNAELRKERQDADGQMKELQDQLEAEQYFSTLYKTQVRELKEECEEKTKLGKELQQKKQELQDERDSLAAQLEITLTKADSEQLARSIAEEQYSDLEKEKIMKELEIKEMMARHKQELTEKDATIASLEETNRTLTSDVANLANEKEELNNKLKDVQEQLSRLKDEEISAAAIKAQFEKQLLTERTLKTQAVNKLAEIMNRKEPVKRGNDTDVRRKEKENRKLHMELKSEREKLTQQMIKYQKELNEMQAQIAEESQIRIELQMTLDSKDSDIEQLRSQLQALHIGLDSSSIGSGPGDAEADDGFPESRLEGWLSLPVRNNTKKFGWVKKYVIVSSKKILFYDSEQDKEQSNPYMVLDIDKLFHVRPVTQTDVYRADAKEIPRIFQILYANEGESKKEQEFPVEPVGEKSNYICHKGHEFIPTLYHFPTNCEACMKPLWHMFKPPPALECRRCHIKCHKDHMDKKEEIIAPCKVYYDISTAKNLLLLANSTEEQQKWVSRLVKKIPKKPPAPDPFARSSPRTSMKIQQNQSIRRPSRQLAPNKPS
Cell-free biochemical kinase activity was assayed using published procedures. Briefly, recombinant ROCK1 (9.48 nM) or ROCK2 (8.26 nM; Invitrogen, Waltham, MA, USA) was incubated in the presence of 0.1 and 1 µM concentrations of DJ4 analogs or DMSO in ROCK-assay buffer at room temperature (RT) for 10 min. MRCKα and MRCKβ (2 ng/µL; Invitrogen) assays were performed in the assay buffer recommended by the manufacturer. Recombinant MYPT1 (20 ng/µL; Millipore) and ATP (5 µM) were added to initiate the reaction. The reaction was incubated at 30 °C for 20 min. Western blot analysis of these samples for phosphorylation of MYPT1 was performed as per the method mentioned in our earlier publication. Briefly, an equal amount of sample was loaded on Bis-Tris gel (Novex, Life Technologies, Carlsbad, CA, USA), proteins were electrophoresed and transferred to PVDF membranes. The blots were probed with anti-pMYPT1 (Thr696) or anti-MYPT1 (Millipore) antibodies.
(Immunoblotting shows a protein as a band on a membrane.)

SMILES strings stand for the structures.

A word on the IC50: it is the concentration needed to halve the response being measured. Consider `O=C1N/C(=N\CCc2ccccc2)S/C1=C/c1c[nH]c2ncccc12` [DJ4], for which the “% Migration compared to control” value in test [1] came out at 32%. For the same compound, the IC50 in the test with MDA-MB-231 was 2.3 ± 0.23 µM. Further, the “inhibition of kinase activity (qualitative immunoblot)” value (shortened to “inhibition of kinase activity”) at ROCK2 (ROCK2, 0.1 µM) was “ineffective”; at ROCK2 (ROCK2, 1 µM), “significantly inhibit”.
For `O=C1N/C(=N\Cc2ccccc2)S/C1=C/c1c[nH]c2ncccc12` [DJ110] the same measures were 28%, 0.65 ± 0.07 µM, “significantly inhibited” and “significantly inhibit”.
`C=CC/N=C1\NC(=O)/C(=C\c2c[nH]c3ncccc23)S1` [DJ-Allyl]: the “% Migration compared to control” value in test [1] worked out at 36%. In the test with MDA-MB-231, the IC50 amounted to 4.1 ± 1.23 µM. For the same compound, the “inhibition of kinase activity” value at ROCK2 (ROCK2, 1 µM) is “almost completely inhibited”.
On to `O=C1N/C(=N\CCN2CCOCC2)S/C1=C/c1c[nH]c2ncccc12` [DJ-Morpholine], for which the IC50 with MDA-MB-231 was greater than 10 µM. The “decrease in cell growth” value with MDA-MB-231 (MDA-MB-231, 0.6215 µM, 48 h, effect saturated at higher concentrations) is ~ 30%. For the same compound, the “inhibition of kinase activity” value on ROCK2 (ROCK2, 1 µM) is recorded as “almost completely inhibited”.
Turning to `CC/N=C1\NC(=O)/C(=C\c2c[nH]c3ncccc23)S1` [DJE4], the “% Migration compared to control” value in test [1] is listed as 48%. The IC50 in the test with MDA-MB-231 was determined as 5.9 ± 1.63 µM. The “inhibition of kinase activity” value at ROCK2 (ROCK2, 1 µM) is given as “almost completely inhibited”.
